Assay results: US8604023B2, “1,4-benzodiazepinone compounds and their use in treating cancer” (The Regents of the University of Michigan, priority 2009, dated 2013)

Columns and labels:
[1] = tested on: A549/ATCC; experiment: cancer cell growth inhibition (SRB); format: cell-based, human; conditions: Non-Small Cell Lung Cancer
[2] = tested on: SF-268; experiment: cancer cell growth inhibition (SRB); format: cell-based, human; conditions: CNS Cancer
[3] = tested on: NCI-H226; experiment: cancer cell growth inhibition (SRB); format: cell-based, human; conditions: Non-Small Cell Lung Cancer
[4] = tested on: HCT-15; experiment: cancer cell growth inhibition (SRB); format: cell-based, human; conditions: Colon Cancer
[5] = tested on: CCRF-CEM; experiment: cancer cell growth inhibition (SRB); format: cell-based, human; conditions: Leukemia
[6] = tested on: K-562; experiment: cancer cell growth inhibition (SRB); format: cell-based, human; conditions: Leukemia
[7] = tested on: SK-MEL-28; experiment: cancer cell growth inhibition (SRB); format: cell-based, human; conditions: Melanoma
[8] = tested on: Ramos cells; experiment: cytotoxicity in Ramos cells; format: cell-based; conditions: Homo sapiens
Method: The compounds listed in Table 5 were tested for cytotoxicity in Ramos cells. The assay was conducted as described in K. M. Johnson et al. Chemistry & Biology 2005, 12, 485-496.

[9] = tested on: HT29; experiment: cancer cell growth inhibition (SRB); format: cell-based, human; conditions: Colon Cancer
[10] = tested on: IGROV1; experiment: cancer cell growth inhibition (SRB); format: cell-based, human; conditions: Ovarian Cancer
[11] = tested on: KM12; experiment: cancer cell growth inhibition (SRB); format: cell-based, human; conditions: Colon Cancer
[12] = tested on: T-47D; experiment: cancer cell growth inhibition (SRB); format: cell-based, human; conditions: Breast Cancer
[13] = tested on: HL-60(TB); experiment: cancer cell growth inhibition (SRB); format: cell-based, human; conditions: Leukemia
[14] = tested on: MDA-MB-435; experiment: cancer cell growth inhibition (SRB); format: cell-based, human; conditions: Breast Cancer
[15] = tested on: MDA-MB-468; experiment: cancer cell growth inhibition (SRB); format: cell-based, human; conditions: Breast Cancer
Description: The compounds described herein can be tested for activity against various forms of cancer by testing for inhibition of cancer cell growth using in vitro assays. For example, compounds V-23 and V-38 (See Table 5 in Example 26) where tested for efficacy in inhibiting the growth of human cancer cells using the general procedure described below. The test evaluated compound activity for inhibiting cancer cell growth in over 50 cancer cell lines, which included non-small cell lung cancer, colon cancer, breast cancer, ovarian cancer, leukemia, renal cancer, melanoma, prostate cancer, and cancer of the central nervous system tissue. […]
Following addition of the test compound, the plates are incubated for an additional 48 h at 37° C., 5% CO2, 95% air, and 100% relative humidity. […] Bound stain is then solubilized with 10 mM trizma base, and the absorbance is read on an automated plate reader at a wavelength of 515 nm. […] Using seven absorbance measurements [time zero, (Tz), control growth, (C), and test growth in the presence of drug at the five concentration levels (Ti)], the percentage growth is calculated at each of the drug concentrations levels.
The percentage of growth inhibition caused by the test compounds on the cancer cell lines can be calculated using the following formulae: [(Ti−Tz)/(C−Tz)]×100 for concentrations for which Ti≧Tz [(Ti−Tz)/Tz]×100 for concentrations for which Ti<Tz

[16] = tested on: OVCAR-3; experiment: cancer cell growth inhibition (SRB); format: cell-based, human; conditions: Ovarian Cancer
[17] = tested on: SF-539; experiment: cancer cell growth inhibition (SRB); format: cell-based, human; conditions: CNS Cancer
[18] = tested on: MDA-MB-231/ATCC; experiment: cancer cell growth inhibition (SRB); format: cell-based, human; conditions: Breast Cancer

CN1C(=O)C(Cc2ccc3ccccc3c2)N=C(c2cn[nH]c2)c2cc(Cl)ccc21 (stereo not drawn) [Compound V-38]
growth inhibition of the cancer cells [1]: ++ (40%-75% growth inhibition of the cancer cells) | growth inhibition of the cancer cells [2]: +++ (at least 75% growth inhibition of the cancer cells) | growth inhibition of the cancer cells [3]: ++ (40%-75% growth inhibition of the cancer cells) | growth inhibition of the cancer cells [4]: ++ (40%-75% growth inhibition of the cancer cells) | growth inhibition of the cancer cells [5]: + (less than 40% growth inhibition of the cancer cells) | growth inhibition of the cancer cells [6]: + (less than 40% growth inhibition of the cancer cells) | growth inhibition of the cancer cells [7]: +++ (at least 75% growth inhibition of the cancer cells) | EC50 [8]: ≤ 5 µM | growth inhibition of the cancer cells [9]: + (less than 40% growth inhibition of the cancer cells) | growth inhibition of the cancer cells [10]: +++ (at least 75% growth inhibition of the cancer cells) | growth inhibition of the cancer cells [11]: +++ (at least 75% growth inhibition of the cancer cells) | growth inhibition of the cancer cells [12]: + (less than 40% growth inhibition of the cancer cells) | growth inhibition of the cancer cells [13]: + (less than 40% growth inhibition of the cancer cells) | growth inhibition of the cancer cells [14]: + (less than 40% growth inhibition of the cancer cells) | growth inhibition of the cancer cells [15]: ++ (40%-75% growth inhibition of the cancer cells) | growth inhibition of the cancer cells [16]: +++ (at least 75% growth inhibition of the cancer cells) | growth inhibition of the cancer cells [17]: +++ (at least 75% growth inhibition of the cancer cells) | growth inhibition of the cancer cells [18]: + (less than 40% growth inhibition of the cancer cells)
